Measured values as given in patent US9586914B2, “Modulators of C3a receptors” (THE UNIVERSITY OF QUEENSLAND, priority 2011, dated 2017).
Like-named read-outs stand apart in the source and are kept apart here.

Tests used:
[1] = biological target: T1, C3a receptor (C3aR) (Homo sapiens, UniProt Q16581); experiment: Competitive binding with [^125I]-C3a in HMDM; settings: for remaining activity at 20 µM: 1 h, read-out: %[^125I]-C3a binding
T1 construct: peripheral blood mononuclear cells were isolated from buffy coat (obtained from Australian Red Cross Blood Service, Kelvin Grove); endogenous in cells; host or cells: primary human monocyte-derived macrophages (HMDM) differentiated from CD14+ monocytes of donor buffy coat
T1 sequence (Q16581 1-482): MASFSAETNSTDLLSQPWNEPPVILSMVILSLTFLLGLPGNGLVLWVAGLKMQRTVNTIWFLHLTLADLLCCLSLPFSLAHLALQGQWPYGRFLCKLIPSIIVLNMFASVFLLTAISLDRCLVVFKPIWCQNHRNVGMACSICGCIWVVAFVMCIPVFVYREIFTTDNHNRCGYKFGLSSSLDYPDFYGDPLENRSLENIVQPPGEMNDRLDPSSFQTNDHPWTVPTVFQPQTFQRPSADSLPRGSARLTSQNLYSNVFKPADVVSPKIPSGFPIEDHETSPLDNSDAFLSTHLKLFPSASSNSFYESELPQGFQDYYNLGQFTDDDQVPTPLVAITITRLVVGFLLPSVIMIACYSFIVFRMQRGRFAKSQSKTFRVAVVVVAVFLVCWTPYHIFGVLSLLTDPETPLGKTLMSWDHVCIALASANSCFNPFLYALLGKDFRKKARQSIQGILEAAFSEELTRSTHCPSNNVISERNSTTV
From the text: For HMDM, peripheral blood mononuclear cells were isolated from buffy coat (obtained from Australian Red Cross Blood Service, Kelvin Grove) using Ficoll-paque density centrifugation (GE Healthcare Bio-Science, Uppsala, Sweden). CD^14+ monocytes were positively selected using CD^14+ MACS magnetic beads (Miltenyi Biotech, Auburn, Calif., USA). […] Cells were harvested by gentle scraping in saline solution and replated for use on Day 7. […] Unbound radioactivity was removed by filtration through glass microfiber filters GF/B (Whatman Iner. […] The filter was washed 3 times with cold buffer (50 mM Tris-HCl) pH 7.4. […] The −log IC50 for each compound was calculated for separate experiments and express as an arithmetic mean standard error (SE). IC50 values were expressed as a geometric mean.

[2] = biological target: T2, C3aR (Homo sapiens, UniProt Q16581); experiment: Calcium mobilization assay in HMDM (agonist/antagonist activity); type: cell-based; settings: for IC50: read-out: Antagonist Activity Ca^2+ IC50; for Emax at 10 µM: read-out: % agonist
T2 construct: peripheral blood mononuclear cells were isolated from buffy coat (obtained from Australian Red Cross Blood Service, Kelvin Grove); endogenous in cells; host or cells: primary human monocyte-derived macrophages (HMDM) differentiated from CD14+ monocytes of donor buffy coat
T2 sequence (Q16581 1-482): T1 sequence (Q16581 1-482)
Method: Harvested HMDM cells were washed with 0.9% NaCl solution by centrifugation at 2500 rpm for 5 min, followed by resuspension of the cell pellet with complete media. Cells were seeded at 5×10^4 cells/well in a 96-well black-wall, clear bottom plate (DKSH, Zurich), and left overnight to adhere at 37° C. On the day of the experiment, supernatant was removed and cells were incubated in dye loading buffer (Hank's Balanced Salt Solution (HBSS) with 4 μM Fluo-3, 25 μL pluronic acid, 1% fetal bovine serum (FBS) and 2.5 mM probenecid) for one hour at 37° C. Cells were then washed twice with HBSS and transferred to a Fluorostar spectrofluorimeter (BMG, Durham N.C.) for oxazole compound injection and fluorescence measurements.
Various compounds were examined in the calcium mobilization assay for agonist or antagonist activity compared to hC3a and to the known antagonist SB290157.
HMDMs were seeded into black-wall, clear bottom 96-well plates (Corning Incorporated, NY) at 50,000 cells/well and left to incubate at 37° C. with 5% CO2 overnight for cells to adhere. The medium was removed before being washed with the assay buffer (1×HBSS, 20 mM HEPES, 2.5 mM probenecid, pH 7.4). To each well was added 100 μL of dye-loading buffer made up of 12 mL calcium buffer, 1% FBS, 25 μL of Fluo-3 dye (final concentration of 4 μM) and 25 μL of 20% pluronic acid. The plate was covered in aluminium foil to protect the light-sensitive dye and left to incubate at 37° C. for 1 h. The dye-loading buffer was removed before the cells were washed with the assay buffer to remove excess loading dye. To each well was added 50 μL of fresh assay buffer before the plate was loaded into a FLIPR (Fluorescent Imaging Plate Reader) that can inject treatments and measure any calcium release. To generate agonist plots, calcium release was monitored for 300 seconds. To generate antagonist plots, calcium release was recorded for 900 seconds, which at the same time would allow incubation for the antagonists. After the initial incubation period, an agonist would be added and the response was recorded for 300 seconds. Intracellular release of calcium was recorded via fluorescence measurements at wavelength of 485 nm for excitation and 520 nm for emission.

[3] = Table 8, HMDM, read-out: Receptor Binding Affinity ^125I IC50
[4] = Table 6, competitive binding with [^125I]-C3a, HMDM
[5] = Table 6, competitive binding with [^125I]-C3a, HMDM, read-out: IC50 (converted)
[6] = Table 9, Ca^2+ mobilization, HMDM, read-out: EC50
[7] = Table 14, binding affinity for C3aR on HMDM, read-out: -Log IC50 (converted)

Compound | IC50 [1, 5] [nM] | Emax at 10 µM [2] [%] | other results
N=C(N)NCCC[C@H](NC(=O)c1nc(C(c2ccccc2)c2ccccc2)[nH]c1-c1ccccc1)C(=O)O [Compound 62, 2-Diphenylmethyl-4-phenyl imidazole-5-carboxyl-Arg-OH] |  |  | IC50 [1, 3]: 46 nM; EC50 ([2]; Table 10, HMDM, read-out: Agonist Activity EC50): > 100000 nM; IC50 ([2]; Table 10, HMDM): 600 nM
N=C(N)NCCC[C@H](NC(=O)c1noc(C(c2ccccc2)c2ccccc2)n1)C(=O)O [Compound 68, 5-Diphenylmethyl-1-oxa-2,4-diazole-3-carboxyl-Arginine-OH] |  |  | IC50 [1, 3]: 447 nM; IC50 ([2]; Table 10, HMDM): 1200 nM
CC(C)C[C@H](NC(=O)Cc1ccc(F)cc1)c1nc(C(=O)N[C@@H](CCCNC(=N)N)C(=O)O)co1 [Compound 24, 2-(4-fluorophenyl)acetic acid-Leucine-Oxazole-Arginine-OH] | 102 |  | pIC50 ± SEM [1, 4]: 6.99 ± 0.10; pEC50 ± SEM ([2]; Table 9, Ca^2+ mobilization, HMDM): 6.28 ± 0.16; EC50 [2, 6]: 527 nM
Cc1oc([C@H](CC(C)C)NC(=O)c2cccnc2)nc1C(=O)N[C@@H](CCCNC(=N)N)C(=O)O [Compound 30] |  | 68 | remaining activity at 20 µM [1]: 29%
CC(C)(C)OC(=O)N[C@@H](Cc1ccccc1)c1nc(C(=O)N[C@@H](CCCNC(=N)N)C(=O)O)co1 [Compound 3, Boc-L-Phenylalanine-Oxazole-Arg] | 509 |  | 
Cc1oc([C@H](CC(C)C)NC(=O)Cc2ccc(C(F)(F)F)cc2)nc1C(=O)N[C@@H](CCCNC(=N)N)C(=O)O [Compound 36, 4-(Trifluoromethyl)-phenylacetic acid-Leucine-5-Methyl-Oxazole-Arginine] |  | 50 | remaining activity at 20 µM [1]: 61%
N=C(N)NCCC[C@H](NC(=O)c1ccc(C(c2ccccc2)c2ccccc2)o1)C(=O)O [Compound 57, 5-Diphenylmethyl-furan-2-carboxyl-Arg-OH] |  |  | Function at C3aR (agonist / antagonist) ([2]; text of Example 100): antagonist
Cc1oc([C@H](CC(C)C)NC(=O)C2CCCCC2)nc1C(=O)N[C@@H](CCCNC(=N)N)C(=O)O [Compound 32, Cyclohexane carboxylic acid-Leucine-5-Methyl-Oxazole-Arginine] |  | 107 | remaining activity at 20 µM [1]: 39%
COc1cccc(C(=O)N[C@@H](CC(C)C)c2nc(C(=O)N[C@@H](CCCNC(=N)N)C(=O)O)c(C)o2)c1 [Compound 42, m-Anisic acid-Leucine-5-Methyl-Oxazole-Arginine] |  | 134 | 
Cc1oc([C@H](CC(C)C)NC(=O)CCC(C)C)nc1C(=O)N[C@@H](CCCNC(=N)N)C(=O)O [Compound 35, 4-Methyl valeric acid-Leucine-5-Methyl-Oxazole-Arginine] |  | 95 | 
COc1ccc(CC(=O)N[C@@H](CC(C)C)c2nc(C(=O)N[C@@H](CCCNC(=N)N)C(=O)O)c(C)o2)cc1OC [Compound 43, 3,4-Dimethoxy-phenyl acetic acid-Leucine-5-Methyl-Oxazole-Arginine] |  | 67 | remaining activity at 20 µM [1]: 65%
CC(C)C[C@H](NC(=O)OC(C)(C)C)c1nc(C(=O)N[C@@H](CCCNC(=N)N[N+](=O)[O-])C(=O)O)co1 [Compound 89, (S)-2-(2-((S)-1-((tert-butoxycarbonyl)amino)-3-methylbutyl)oxazole-4-carboxamido)-5-(3-nitroguanidino)pentanoic acid] | 129 |  | 
CC(C)C[C@H](NC(=O)C1c2ccccc2-c2ccccc21)c1nc(C(=O)N[C@@H](CCCNC(=N)N)C(=O)O)co1 [Compound 17, 9-Fluorenecarboxylic acid-Leu-Oxazole-Arginine-OH] | 142 |  | pIC50 ± SEM [1, 4]: 6.85 ± 0.15
CC(C)Cc1ccc([C@H](C)C(=O)N[C@@H](CC(C)C)c2nc(C(=O)N[C@@H](CCCNC(=N)N)C(=O)O)co2)cc1 [Compound 14, 2-(4-isobutylphenyl)propanoic acid Leucine-Oxazole-Arginine-OH] | 1030 |  | 
CC[C@H](C)[C@H](NC(=O)c1ccc(N(C)C)cc1)c1nc(C(=O)N[C@@H](CCCNC(=N)N)C(=O)O)co1 [Compound 11, 4-(Dimethylamino)benzoic acid-Isoleucine-Oxazole-Arginine-OH] | 800 |  | pIC50 ± SEM [1, 4]: 6.10 ± 0.16
N=C(N)NCCC[C@H](NC(=O)c1cnc(C(c2ccccc2)c2ccccc2)s1)C(=O)O [Compound 78] |  |  | IC50 [1, 7]: 3.98 nM
Cc1oc([C@H](CC(C)C)NC(=O)c2ccncc2)nc1C(=O)N[C@@H](CCCNC(=N)N)C(=O)O [Compound 31, Isonicotinic acid-Leucine-5-Methyl-Oxazole-Arginine] |  | 109 | 
Cc1oc([C@H](CC(C)C)NC(=O)c2ccc(Oc3ccccc3)cc2)nc1C(=O)N[C@@H](CCCNC(=N)N)C(=O)O [Compound 49, 4-Phenoxybenzoic acid-Leucine-5-Methyl-Oxazole-Arginine] |  | 105 | 
Cc1ccc(NC(=O)N[C@@H](CC(C)C)c2nc(C(=O)N[C@@H](CCCNC(=N)N)C(=O)O)c(C)o2)cc1 [Compound 45, p-Tolyl isocyanate-Leucine-5-Methyl-Oxazole-Arginine] |  | 64 | 
Cc1c(C(=O)N[C@@H](CCCNC(=N)N)C(=O)O)nc(C(c2ccccc2)c2ccccc2)n1C [Compound 97, 2-Benzhydryl-1,5-Dimethyl imidazole-4-carboxyl-Arginine] | 1140 |  | IC50 [1, 7]: 1260 nM
CC(C)(C)OC(=O)N[C@@H](Cc1c[nH]c2ccccc12)c1nc(C(=O)N[C@@H](CCCNC(=N)N)C(=O)O)co1 [Compound 4, Boc-L-Tryptophan-Oxazole-Arg] | 2290 |  | 
Cc1c(C(=O)N[C@@H](CCCNC(=N)N)C(=O)O)nc([C@H](CC(C)C)NC(=O)OC(C)(C)C)n1C [Compound 81, Boc-Leucine-1-methylimidazole-Arginine-OH] |  |  | EC50 [2, 6]: 60 nM
CC(C)C[C@H](NC(=O)OC(C)(C)C)c1nnc(C(=O)N[C@@H](CCCNC(=N)N)C(=O)O)o1 [Compound 83, Boc-Leucine-1-oxa-3,4-diazole-Arginine-OH] | 1220 |  | 
CC(C)C[C@H](NC(=O)OC(C)(C)C)c1nc(C(=O)N[C@@H](Cc2ccc(C(=N)NO)cc2)C(=O)O)co1 [Compound 84, (S)-2-(2-((S)-1-((tert-butoxycarbonyl)amino)-3-methylbutyl)oxazole-4-carboxamido)-3-(4-(N-hydroxycarbamimidoyl)phenyl)propanoic acid] | 76 |  | 
CC[C@H](C)[C@H](NC(=O)c1ccc(C(=O)c2ccccc2)cc1)c1nc(C(=O)N[C@@H](CCCNC(=N)N)C(=O)O)co1 [Compound 12, 4-Benzoylbenzoic acid-Isoleucine-Oxazole-Arginine-OH] | 157 |  | pIC50 ± SEM [1, 4]: 6.80 ± 0.15
CC(C)C[C@H](NC(=O)[C@@H](C)c1ccc(N2Cc3ccccc3C2=O)cc1)c1nc(C(=O)N[C@@H](CCCNC(=N)N)C(=O)O)co1 [Compound 15, 2-(4-(1-oxoisoindolin-2-yl)phenyl)propanoic acid Leucine-Oxazole-Arginine-OH] | 451 |  | 
